The values below come from the supplement of paper PMC11061612.

Experiment [1] concerns NCI-H1299 (Non-Small Cell Lung Carcinoma). In words: Bliss excess, mean over the matrix (fraction); higher = more synergy. A digest of the protocol:
(§1)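 Cell lines in DMEM/F12 or RPMI with 10% FBS were plated in 1536-well plates, held 24 hours at 37°C, 5% CO2, then given two-drug dose matrices for 72 hours (DMSO typically 0.2%). Viability was read by CellTiter-Glo 2.0 luminescence and scaled as inhibition from 0 (vehicle wells) to 1 (blank wells). Combination Emax is the second-highest inhibition in the matrix; Bliss excess is observed combination effect minus expected EA + EB − EA·EB, EA and EB being single-agent effects.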

In experiment [2] the test system is SW1088 (Low Grade Glioma). The description is as above. A digest of the protocol:
as §1

The test system of experiment [3] is DOV13 (Ovarian Carcinoma). Described as above. A digest of the protocol:
as §1

Experiment [4] has as its system TE-5 (Esophageal Squamous Cell Carcinoma). Described as above. A digest of the protocol: as §1
Experiment [5] concerns MDA-MB-157 (Breast Carcinoma). Described as above. In outline:
as §1

The subject of experiment [6] is LS-513 (Colorectal Carcinoma). The experiment is described as above. A digest of the protocol: as §1
Experiment [7] deals with COR-L95 (Small Cell Lung Carcinoma). Described as above. A digest of the protocol:
as §1

The test system of experiment [8] is NCI-H211 (Small Cell Lung Carcinoma). The experiment is described as above. A digest of the protocol: as §1
Experiment [9] deals with KARPAS-620 (Plasma Cell Myeloma). The description is as above. A digest of the protocol:
as §1

Experiment [10] deals with HT-29 (Colorectal Carcinoma). The description is as above. A digest of the protocol:
as §1

The next experiment deals with SN12C (Kidney Carcinoma). Described as above. In outline:
as §1

A further experiment relates to DSH1 (Bladder Carcinoma). The experiment is described as above. A digest of the protocol: as §1
Experiment [11] deals with DB (B-Cell Non-Hodgkin's Lymphoma). The experiment is described as above. A digest of the protocol: as §1
Experiment [12] deals with SW1783 (Low Grade Glioma). Described as above. A digest of the protocol: as §1
Experiment [13] deals with SW780 (Bladder Carcinoma). In words: combination Emax (second highest fraction inhibited in the dose matrix, 72 h); higher = more inhibition; extreme values may be limits of the assay. In outline:
as §1

For experiment [14], the system named is KM-H2 (Hodgkin's Lymphoma). Described as above. A digest of the protocol: as §1
Experiment [15] relates to TGBC24TKB (Biliary Tract Carcinoma). The description is as above. A digest of the protocol: as §1
The subject of another experiment is RH-1 (Ewing's Sarcoma). The description is as above. In outline: as §1
In experiment [16] the test system is SUIT-2 (Pancreatic Carcinoma). The description is as above. In outline:
as §1

In experiment [17] the test system is SW756 (Cervical Carcinoma). The description is as above. In outline: as §1

Molecules are shown by their SMILES.
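For Bliss excess, mean over the matrix in this document: after 72 h of two-drug dosing.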

For `N#Cc1cnc(Nc2cc(NC[C@H]3CNCCO3)c(C(F)(F)F)cn2)cn1` [SRA737] + O=c1[nH]cc(F)c(=O)[nH]1 [5-Fluorouracil] (first compound max 10 µM, 7x7, partner max 20 µM), the Bliss excess in [1] was -0.0191; in experiment [2], 0.0081; in [3], 0.0258; in experiment [4] it was 0.0052; in [5], 0.0781; in experiment [6], -0.0287. For the same compound, the Bliss excess was -0.0218 in [7]; 0.0823 in experiment [8]; 0.0096 in experiment [9]; 0.021 in experiment [10]; -0.0474 with SN12C (Kidney Carcinoma); 0.0051 with DSH1 (Bladder Carcinoma). Also, the figures for the Bliss excess in [11] and in [12] were -0.0088 and 0.0143, respectively.
`C[C@@H](Nc1cc(F)cc(F)c1)c1cc(C(=O)N(C)C)cc2c(=O)cc(N3CCOCC3)oc12` [AZD8186] + CC(=O)c1c(C)c2cnc(Nc3ccc(N4CCNCC4)cn3)nc2n(C2CCCC2)c1=O [Palbociclib] (first compound max 10 µM, 7x7, partner max 10 µM): the Bliss excess is 0.0316 in [1]; 0.0658 in experiment [2]; -0.224 in experiment [3]; 0.0301 in experiment [4]; 0.0093 in [5]; 0.0084 in experiment [6]. In addition, the Bliss excess was -0.0215 in experiment [7]; 0.2 in experiment [8]; 0.15 in experiment [9]; 0.0614 in experiment [10]; 0.0245 in the experiment on SN12C (Kidney Carcinoma); 0.104 in the experiment with DSH1 (Bladder Carcinoma). For the same compound, the figures for the Bliss excess in experiment [11] and in experiment [12] were 0.0797 and 0.0594, respectively.
As to `O=C(c1cc(Cc2n[nH]c(=O)c3ccccc23)ccc1F)N1CCN(C(=O)C2CC2)CC1` [Olaparib] + CC1(C)CCC(CN2CCN(c3ccc(C(=O)NS(=O)(=O)c4ccc(NCC5CCOCC5)c([N+](=O)[O-])c4)c(Oc4cnc5[nH]ccc5c4)c3)CC2)=C(c2ccc(Cl)cc2)C1 [Venetoclax] (first compound max 10 µM, 7x7, partner max 1 µM), the Bliss excess in experiment [1] is -0.0527; in experiment [2], -0.0611; in experiment [3], -0.0322; in experiment [4], -0.0458; in experiment [5] it was -0.0406; in experiment [6], -0.0498. Further, the Bliss excess is 0.0791 in [7]; 0.0865 in [8]; 0.003 in experiment [9]; -0.0304 in [10]; -0.0534 in the experiment on SN12C (Kidney Carcinoma); -0.0401 in the experiment on DSH1 (Bladder Carcinoma). Besides, the Bliss excess is 0.0522 in experiment [11] and -0.0349 in [12].
As for `CC1(C)CCC(CN2CCN(c3ccc(C(=O)NS(=O)(=O)c4ccc(NCC5CCOCC5)c([N+](=O)[O-])c4)c(Oc4cnc5[nH]ccc5c4)c3)CC2)=C(c2ccc(Cl)cc2)C1` [Venetoclax] + CS(=O)(=O)CCNCc1ccc(-c2ccc3ncnc(Nc4ccc(OCc5cccc(F)c5)c(Cl)c4)c3c2)o1 [Lapatinib] (first compound max 1 µM, 7x7, partner max 10 µM), the Bliss excess is -0.0402 in experiment [1]; -0.0313 in experiment [2]; -0.0228 in experiment [3]; -0.0388 in experiment [4]; -0.0549 in experiment [5]; -0.0203 in experiment [6]. The Bliss excess in [7] is -0.0566; in [8], -0.0037; in experiment [9], 0.0569; in [10], -0.0493; with SN12C (Kidney Carcinoma), -0.0179; with DSH1 (Bladder Carcinoma), -0.021. The Bliss excess is 0.0803 in experiment [11] and -0.0232 in [12].
For the compound `O=C(c1cc(Cc2n[nH]c(=O)c3ccccc23)ccc1F)N1CCN(C(=O)C2CC2)CC1` [Olaparib] + COc1nnc2ccc(N3CCC(c4ccc(OCCN5CCN(C)C(=O)[C@H]5C)cc4)CC3)nn12 [AZD5153] (first compound max 10 µM, 7x7, partner max 1 µM), the Bliss excess in [1] is -0.0826; in experiment [2], -0.0563; in [3], -0.0778; in experiment [4], -0.052; in experiment [5] it was -0.0507; in experiment [6], -0.0628. Also, the Bliss excess in [7] is -0.0488; in experiment [8], -0.0168; in experiment [9] it was -0.0365; in experiment [10], -0.0406; in the experiment on SN12C (Kidney Carcinoma) it was -0.0222; with DSH1 (Bladder Carcinoma), -0.0925. Also, the Bliss excess in [11] is 0.0255; in [12] it was -0.0177.
In the case of `N#Cc1cnc(Nc2cc(NC[C@H]3CNCCO3)c(C(F)(F)F)cn2)cn1` [SRA737] + Nc1ccn([C@@H]2O[C@H](CO)[C@@H](O)C2(F)F)c(=O)n1 [Gemcitabine] (first compound max 10 µM, 7x7, partner max 0.3 µM), the Bliss excess was 0.0831 in experiment [1]; -0.0658 in experiment [2]; 0.0821 in experiment [3]; -0.0151 in experiment [4]; 0.0499 in [5]; -0.0189 in experiment [6]. Further, the Bliss excess in experiment [7] is -0.0067; in experiment [8] it was 0.0372; in experiment [9] it was 0.151; in experiment [10], 0.0573; in the experiment on SN12C (Kidney Carcinoma), 0.0884; in the experiment with DSH1 (Bladder Carcinoma), 0.0195. For the same compound, the Bliss excess is 0.0174 in experiment [11] and 0.0091 in [12].
As to `CS(=O)(=O)CCNCc1ccc(-c2ccc3ncnc(Nc4ccc(OCc5cccc(F)c5)c(Cl)c4)c3c2)o1` [Lapatinib] + NC1(c2ccc(-c3nc4ccn5c(=O)[nH]nc5c4cc3-c3ccccc3)cc2)CCC1 [MK-2206] (first compound max 10 µM, 7x7, partner max 10 µM), the “combination Emax” value worked out at 0.737 in experiment [13]; 0.939 in experiment [14]; 0.957 in [15]; 0.936 in the experiment on RH-1 (Ewing's Sarcoma); 0.361 in [16]; 0.175 in [17]. Further, the Bliss excess was 0.0027 in [1]; 0.0163 in experiment [2]; 0.0362 in experiment [3]; 0.0735 in [4]; -0.0057 in [5]; -0.0396 in experiment [6]. Further, the Bliss excess in experiment [7] is 0.0048; in [8] it was 0.058; in [9], 0.032; in experiment [10] it was 0.0084; with SN12C (Kidney Carcinoma), -0.0236; in the experiment with DSH1 (Bladder Carcinoma), 0.0917. Besides, the figures for the Bliss excess in experiment [11] and in experiment [12] were -0.0017 and -0.0201, respectively.
`Cc1cc2ncnn2cc1Nc1ncc2c(n1)n(C1CCOCC1)c(=O)n2C` [AZD7648] + COc1cc([C@@H]2c3cc4c(cc3[C@@H](O[C@@H]3O[C@@H]5CO[C@@H](C)O[C@H]5[C@H](O)[C@H]3O)[C@H]3COC(=O)[C@H]23)OCO4)cc(OC)c1O [Etoposide] (first compound max 10 µM, 7x7, partner max 10 µM): the Bliss excess is 0.113 in experiment [1]; 0.032 in experiment [2]; 0.0276 in experiment [3]; -0.0089 in experiment [4]; 0.0451 in experiment [5]; 0.111 in experiment [6]. Besides, the Bliss excess in experiment [7] amounted to 0.0315; in [8], 0.0313; in experiment [9], 0.0051; in experiment [10], 0.0162; in the experiment with SN12C (Kidney Carcinoma), 0.0424; in the experiment with DSH1 (Bladder Carcinoma), 0.0627. The Bliss excess in experiment [11] is 0.0998; in experiment [12], 0.0614.
As to `C[C@@H](Oc1cc(-c2cnn(C3CCNCC3)c2)cnc1N)c1c(Cl)ccc(F)c1Cl` [Crizotinib] + Cn1cnc2c(F)c(Nc3ccc(Br)cc3Cl)c(C(=O)NOCCO)cc21 [Selumetinib] (first compound max 10 µM, 7x7, partner max 10 µM), the Bliss excess is 0.0598 in experiment [1]; -0.0256 in experiment [2]; -0.0732 in [3]; -0.0366 in experiment [4]; -0.0125 in [5]; -0.0167 in experiment [6]. Moreover, the Bliss excess was -0.0955 in [7]; -0.0327 in [8]; 0.0729 in [9]; -0.018 in [10]; -0.0062 in the experiment on SN12C (Kidney Carcinoma); -0.117 in the experiment with DSH1 (Bladder Carcinoma). Besides, the Bliss excess in experiment [11] was -0.0472; in [12] it was -0.0486.
For `C=CCn1c(=O)c2cnc(Nc3ccc(N4CCN(C)CC4)cc3)nc2n1-c1cccc(C(C)(C)O)n1` [AZD1775] + CCc1c2c(nc3ccc(O)cc13)-c1cc3c(c(=O)n1C2)COC(=O)[C@]3(O)CC [SN-38] (first compound max 1 µM, partner max 0.3 µM), the Bliss excess in experiment [1] is -0.0071; in experiment [2] it was -0.0641; in experiment [3] it was -0.0262; in experiment [4] it was -0.0583; in [5], 0.0495; in [6], -0.0867. Also, the Bliss excess is -0.103 in [7]; -0.0576 in experiment [8]; -0.0145 in experiment [9]; 0.027 in experiment [10]; 0.0364 in the experiment with SN12C (Kidney Carcinoma); -0.0654 in the experiment with DSH1 (Bladder Carcinoma). The Bliss excess in experiment [11] was -0.0366; in experiment [12] it was -0.0817.
